Reference: the NIST ThermoML archive (doi:10.1021/je300652k)

Conditions: Liquid, Pulse-echo method

FC(F)=C(F)C(F)(F)F [hexafluoropropene]
Conditions | speed of sound [m/s]
253.27 K, 1150 kPa | 575.6
253.27 K, 10940 kPa | 645.3
253.27 K, 25910 kPa | 728.8
253.27 K, 52820 kPa | 844.3
253.27 K, 75030 kPa | 921.1
253.27 K, 100630 kPa | 997.3
253.27 K, 125810 kPa | 1063
253.27 K, 151420 kPa | 1123.6
253.27 K, 174830 kPa | 1174.3
253.27 K, 200450 kPa | 1224.7
253.27 K, 250580 kPa | 1315.5
253.27 K, 299650 kPa | 1393.8
253.27 K, 350190 kPa | 1468.5
253.27 K, 400740 kPa | 1535.4
273.17 K, 1130 kPa | 488.3
273.17 K, 10400 kPa | 567.9
273.17 K, 25040 kPa | 660.8
273.17 K, 50150 kPa | 779.5
273.17 K, 75280 kPa | 871.7
273.17 K, 100230 kPa | 949
273.17 K, 125430 kPa | 1017.1
273.17 K, 150270 kPa | 1077.5
273.17 K, 175810 kPa | 1133.8
273.17 K, 200700 kPa | 1184.6
273.17 K, 250800 kPa | 1276.7
273.17 K, 300450 kPa | 1358.2
273.17 K, 350820 kPa | 1432.3
273.17 K, 400090 kPa | 1499.6
288.15 K, 1160 kPa | 424.2
288.15 K, 5200 kPa | 468.9
288.15 K, 10130 kPa | 513.8
288.15 K, 25190 kPa | 618
288.15 K, 50080 kPa | 741.2
288.15 K, 75440 kPa | 837.6
288.15 K, 100170 kPa | 916.1
288.15 K, 125510 kPa | 986.4
288.15 K, 150630 kPa | 1048.4
288.15 K, 175250 kPa | 1103.9
288.15 K, 200700 kPa | 1156.6
288.15 K, 250380 kPa | 1249
288.15 K, 300040 kPa | 1331.1
288.15 K, 350970 kPa | 1407.7
288.15 K, 400410 kPa | 1475.2
303.15 K, 1990 kPa | 370.7
303.15 K, 10090 kPa | 463.9
303.15 K, 25160 kPa | 576.7
303.15 K, 50920 kPa | 709.3
303.15 K, 75370 kPa | 804.5
303.15 K, 100560 kPa | 886.5
303.15 K, 125410 kPa | 956.2
303.15 K, 150900 kPa | 1020.1
303.15 K, 175340 kPa | 1075.6
303.15 K, 200830 kPa | 1129
303.15 K, 250190 kPa | 1221.9
303.15 K, 300750 kPa | 1306.5
303.15 K, 350300 kPa | 1381.1
303.15 K, 400020 kPa | 1450.2
323.18 K, 2300 kPa | 288.3
323.18 K, 10550 kPa | 404.9
323.18 K, 28790 kPa | 547
323.18 K, 50380 kPa | 664.6
323.18 K, 75340 kPa | 767.2
323.18 K, 101090 kPa | 852.8
323.18 K, 125070 kPa | 921.8
323.18 K, 150670 kPa | 987.4
323.18 K, 175680 kPa | 1045.2
323.18 K, 200750 kPa | 1098.6
323.18 K, 250620 kPa | 1193.8
323.18 K, 300400 kPa | 1278
323.18 K, 350810 kPa | 1355.4
323.18 K, 400580 kPa | 1424.9
343.19 K, 4760 kPa | 245.5
343.19 K, 8270 kPa | 311.3
343.19 K, 10440 kPa | 341.8
343.19 K, 50540 kPa | 627.2
343.19 K, 75610 kPa | 730.9
343.19 K, 100650 kPa | 818.3
343.19 K, 125170 kPa | 890.4
343.19 K, 150340 kPa | 956.2
343.19 K, 175160 kPa | 1014.7
343.19 K, 200290 kPa | 1069
343.19 K, 250220 kPa | 1165.9
343.19 K, 300620 kPa | 1252
343.19 K, 350100 kPa | 1327.9
343.19 K, 400370 kPa | 1399.8
363.15 K, 10450 kPa | 287
363.15 K, 25500 kPa | 442
363.15 K, 50520 kPa | 592.9
363.15 K, 75490 kPa | 700.6
363.15 K, 100300 kPa | 787.2
363.15 K, 125230 kPa | 861.9
363.15 K, 150340 kPa | 928.6
363.15 K, 175590 kPa | 988.8
363.15 K, 200320 kPa | 1042.8
363.15 K, 250610 kPa | 1141.2
363.15 K, 300360 kPa | 1226.7
363.15 K, 350690 kPa | 1305.3
363.15 K, 400260 kPa | 1376
383.16 K, 15690 kPa | 310.6
383.16 K, 25690 kPa | 407.4
383.16 K, 50530 kPa | 562.3
383.16 K, 75940 kPa | 673.9
383.16 K, 100500 kPa | 761.1
383.16 K, 125630 kPa | 837.2
383.16 K, 150460 kPa | 903.4
383.16 K, 175770 kPa | 964.4
383.16 K, 200740 kPa | 1019.4
383.16 K, 250260 kPa | 1116.8
383.16 K, 300690 kPa | 1204.6
383.16 K, 350280 kPa | 1282.6
383.16 K, 400510 kPa | 1354.3
403.14 K, 16670 kPa | 288.3
403.14 K, 25610 kPa | 375.7
403.14 K, 50890 kPa | 537.5
403.14 K, 75640 kPa | 647.4
403.14 K, 100060 kPa | 737.1
403.14 K, 125630 kPa | 813.6
403.14 K, 150360 kPa | 880.3
403.14 K, 175620 kPa | 941.6
403.14 K, 200670 kPa | 997.2
403.14 K, 250500 kPa | 1096
403.14 K, 300660 kPa | 1183.8
403.14 K, 350610 kPa | 1262.3
403.14 K, 400280 kPa | 1333.6
423.15 K, 19600 kPa | 293.5
423.15 K, 25100 kPa | 345.1
423.15 K, 50800 kPa | 513
423.15 K, 75400 kPa | 623.9
423.15 K, 100710 kPa | 715.4
423.15 K, 125320 kPa | 791.3
423.15 K, 150160 kPa | 858.8
423.15 K, 175410 kPa | 920.3
423.15 K, 200520 kPa | 976.3
423.15 K, 250420 kPa | 1075.9
423.15 K, 300390 kPa | 1163.6
423.15 K, 350600 kPa | 1243
423.15 K, 400920 kPa | 1315.6
448.15 K, 25130 kPa | 318.1
448.15 K, 50710 kPa | 485
448.15 K, 75240 kPa | 596.6
448.15 K, 100750 kPa | 689.4
448.15 K, 125710 kPa | 766.5
448.15 K, 150770 kPa | 834.5
448.15 K, 175320 kPa | 894.5
448.15 K, 200820 kPa | 951.6
448.15 K, 250910 kPa | 1051.8
448.15 K, 300780 kPa | 1139.3
448.15 K, 350710 kPa | 1218.3
448.15 K, 400820 kPa | 1291.1
473.14 K, 25160 kPa | 298.7
473.14 K, 50460 kPa | 462.3
473.14 K, 75570 kPa | 576.7
473.14 K, 100220 kPa | 666.6
473.14 K, 125570 kPa | 745.3
473.14 K, 150690 kPa | 814
473.14 K, 175720 kPa | 875.3
473.14 K, 200800 kPa | 931.7
473.14 K, 250600 kPa | 1031.5
473.14 K, 300640 kPa | 1119.7
473.14 K, 350560 kPa | 1199
473.14 K, 400750 kPa | 1272
